The record followed here is ChEMBL document CHEMBL1201862, “PubChem BioAssay data set” (2004).

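48-hour exposure; five concentrations; linearly interpolated endpoints. GI50 = concentration required for 50% inhibition of growth.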 Activity calls are given as the source filed them. Rule as the data show it: active = GI50 up to about 1.1 µM and inactive = higher. A value given as a limit tells only on which side of the number the result lay.

Among the test systems are BT-549; HL-60; KM12; OVCAR-5; A549; A498; ACHN; SR; NCI-H522; HT-29; EKVX; CAKI-1; LOX IMVI; HOP-62; Malme-3M; MDA-MB-435; NCI-H460; MDA-N; HCC 2998; SK-MEL-5.
What all share (test): inhibition of tumour cell growth, NCI panel, 48 h

Regarding `O=Cc1ccc(-c2ccc(-c3ccc(C=O)s3)o2)s1`, the GI50 in the assay on BT-549 is 77.3 µM (inactive); with HL-60 it was > 100 µM (inactive); in the assay with KM12 it was > 100 µM (inactive); in the assay with OVCAR-5, 2.14 µM (inactive); with A549, > 81.7 µM (inactive); with A498, 0.284 µM (active). The GI50 with ACHN is > 100 µM (inactive); with SR, > 40.8 µM (inactive); with NCI-H522, 15 µM (inactive); in the assay with HT-29, > 96.2 µM (inactive); in the assay on EKVX, > 53.3 µM (inactive); with CAKI-1, 0.418 µM (active). Further, the GI50 in the assay on LOX IMVI was > 100 µM (inactive); with HOP-62, 8.63 µM (inactive); in the assay with Malme-3M it was > 100 µM (inactive); in the assay with MDA-MB-435 it was 71.4 µM (inactive); in the assay with NCI-H460, 1.91 µM (inactive); with MDA-N, 60.3 µM (inactive). Further, the GI50 in the assay on HCC 2998 was 18 µM (inactive); in the assay on SK-MEL-5 it was > 87.7 µM (inactive).
Regarding `Cc1ccc(C(=N)Nc2ccccc2)cc1`, the GI50 with BT-549, in the assay with HL-60, with KM12, in the assay with OVCAR-5, in the assay with A549 and in the assay with A498 was > 100 µM (inactive) throughout. The GI50 was > 100 µM (inactive) in the assay with ACHN; > 100 µM (inactive) in the assay on SR; > 100 µM (inactive) in the assay with NCI-H522; 69.7 µM (inactive) in the assay on HT-29; > 100 µM (inactive) in the assay on EKVX; > 100 µM (inactive) with CAKI-1. Further, the GI50 in the assay on LOX IMVI, in the assay with HOP-62, in the assay on Malme-3M, with MDA-MB-435, in the assay on NCI-H460 and with MDA-N was > 100 µM (inactive) in each case. Further, the results for the GI50 with HCC 2998 and with SK-MEL-5 were 8.13 µM (inactive) and 89.7 µM (inactive), respectively.
`CC1OC(=O)C2CC3CCCCC3C(/C=C/C3CCCC(C)N3C)C12` (centres undefined): the GI50 in the assay on BT-549, with HL-60, in the assay with KM12, in the assay with OVCAR-5, in the assay with A549 and in the assay on A498 was > 100 µM (inactive) throughout. Moreover, the GI50 with ACHN, in the assay on SR, with NCI-H522, in the assay on HT-29, with EKVX and in the assay on CAKI-1 was > 100 µM (inactive) each time. Moreover, the GI50 in the assay on LOX IMVI, with HOP-62, in the assay on Malme-3M, in the assay with MDA-MB-435, in the assay with NCI-H460 and in the assay with MDA-N was > 100 µM (inactive) throughout. In addition, the GI50 in the assay with HCC 2998 is > 100 µM (inactive); with SK-MEL-5, 94.6 µM (inactive).
For `CO/N=C1/C(n2[nH]c(=O)n(-c3ccccc3)c2=O)C2C=CC1n1c(=O)n(-c3ccccc3)c(=O)n12` (centres undefined), the GI50 in the assay on BT-549, in the assay on HL-60, in the assay with KM12, in the assay with OVCAR-5, with A549 and with A498 was > 100 µM (inactive) in each case. Also, the GI50 with SR, in the assay with NCI-H522, in the assay with HT-29, in the assay on EKVX, in the assay on CAKI-1 and with LOX IMVI was > 100 µM (inactive) in each case. The GI50 in the assay on Malme-3M, in the assay with MDA-MB-435, with NCI-H460, in the assay on MDA-N, in the assay on HCC 2998 and in the assay with SK-MEL-5 was > 100 µM (inactive) throughout.
With `COC(=O)c1ccc2cc(O)c(O)cc2c1`, the GI50 is 21.2 µM (inactive) in the assay with BT-549; > 100 µM (inactive) in the assay on HL-60; 30.9 µM (inactive) in the assay with KM12; > 88.9 µM (inactive) in the assay on OVCAR-5; 36.9 µM (inactive) with A549; 30.8 µM (inactive) in the assay on A498. The GI50 in the assay with ACHN was 32.7 µM (inactive); in the assay on SR, 13.2 µM (inactive); in the assay with NCI-H522, 16.1 µM (inactive); with HT-29, 37.4 µM (inactive); in the assay with EKVX it was 20.5 µM (inactive); in the assay on CAKI-1 it was 78.2 µM (inactive). Moreover, the GI50 in the assay with LOX IMVI is 36.1 µM (inactive); with HOP-62, 56 µM (inactive); in the assay on Malme-3M, 35.8 µM (inactive); with MDA-MB-435 it was 34.7 µM (inactive); in the assay on MDA-N, 45 µM (inactive); in the assay with HCC 2998, > 68.9 µM (inactive). Moreover, the GI50 in the assay with SK-MEL-5 was 22.1 µM (inactive).
Regarding `CC(C)(C)C1CCC2c3c([nH]c4ccccc34)C3C(=O)N(c4ccc(C(=O)O)cc4)C(=O)C3C2C1` (centres undefined), the GI50 in the assay on BT-549 was 14.5 µM (inactive); with HL-60 it was 4.52 µM (inactive); in the assay on OVCAR-5, 21.9 µM (inactive); in the assay on A549, 12.2 µM (inactive); in the assay on A498, 18.2 µM (inactive); with ACHN, 11.7 µM (inactive). Besides, the GI50 in the assay with SR was 25 µM (inactive); with NCI-H522, 18.9 µM (inactive); in the assay with HT-29, 12.9 µM (inactive); in the assay with EKVX it was 22 µM (inactive); in the assay on CAKI-1, 16.7 µM (inactive); with LOX IMVI, 14.5 µM (inactive). Further, the GI50 in the assay with HOP-62 was 0.1 µM (active); with Malme-3M, 14.9 µM (inactive); in the assay with MDA-MB-435, 2.96 µM (inactive); in the assay with NCI-H460 it was 16.3 µM (inactive); with MDA-N it was 11.9 µM (inactive); in the assay with HCC 2998 it was 15.6 µM (inactive). The GI50 with SK-MEL-5 is 13.1 µM (inactive).
Turning to `Nc1ncc(C=O)c(NCC2(CO)CCC2)n1`, the GI50 in the assay on BT-549 was > 10 µM (inactive); in the assay with HL-60, 13 µM (inactive); with KM12, 83.9 µM (inactive); in the assay with OVCAR-5, 44.8 µM (inactive); in the assay with A549 it was 37.5 µM (inactive); in the assay on A498 it was 26.3 µM (inactive). The GI50 with SR was 18 µM (inactive); in the assay on NCI-H522, 35.6 µM (inactive); in the assay with HT-29, 64 µM (inactive); in the assay with CAKI-1 it was 2.25 µM (inactive); in the assay with LOX IMVI, 32.1 µM (inactive); with HOP-62 it was 31.7 µM (inactive). Moreover, the GI50 with Malme-3M was 77.4 µM (inactive); with MDA-MB-435, 44.9 µM (inactive); in the assay on NCI-H460, 50 µM (inactive); in the assay on MDA-N, > 100 µM (inactive); in the assay with HCC 2998, > 100 µM (inactive); in the assay on SK-MEL-5, 19.9 µM (inactive).
